Patent publication US10081647B2, “Phosphate substituted quinolizine derivatives useful as HIV integrase inhibitors” (Merck Sharp & Dohme Corp., priority 2015, dated 2018)
Like-named read-outs stand apart in the source and are kept apart here.

Tested on: HIV-1 (NL4-3 strain)
Assay: Assay for inhibition of HIV replication (MT4-gag-GFP reporter cell line, kinetic assay)
Format: cell-based
Details: IP from 4-parameter dose response curve
Procedure: This assay is useful for assessing the ability of a compound of the present inventiongin to inhibit HIV replication. The assay is a kinetic assay that employs a reporter cell line (MT4-gag-GFP) to quantify the number of new cells infected in each round of replication.
MT4-GFP cells (250,000 cells/ml) are bulk-infected with HIV-1 (NL4-3 strain) at low multiplicity of infection (MOI) in RPMI+10% FBS for 24 hours. Cells are then washed once in RPMI+10% FBS and resuspended in RPMI+0% or 10% or 100% normal human serum (NHS). Test compounds are serial-diluted in DMSO using an ECHO liquid handler. The infected MT4-GFP cells are added to a 384-well poly-D-lysine coated black plate with clear bottom in which the diluted test compounds are placed. The cells are seeded at 8,000 cells per well and the final DMSO concentration is adjusted to 0.4%. The infected cells (Green GFP cells) are then quantified at both 24 and 48 hours post incubation using Acumen eX3. Viral reproductive ratio (R0) is determined using the number of infected cells at 48 hours divided by the number of infected cells at 24 hours. Percent viral growth inhibition is calculated by [1−(R−Rtripledrug)/(RDMSO−Rtripledrug)]*100. Compound potency IP or IC50 can be determined using a 4-parameter dose response curve analysis.

[1] = infected MT4-GFP cells in 100% normal human serum, read-out: WILD TYPE CELL ASSAY Viking IP (100% NHS)
[2] = infected MT4-GFP cells in RPMI + 0% normal human serum, read-out: WILD TYPE CELL ASSAY Viking IP (0% NHS)
[3] = Human immunodeficiency virus 1, NL43, infected MT4-GFP cells in RPMI + 0% normal human serum, read-out: WILD TYPE CELL ASSAY Viking IP (0% NHS)

Row | Structure (SMILES) | IC50 [1] [nM] | IC50 [2] [nM] | IC50 [3] [nM] | IC50 (Human immunodeficiency virus 1, NL43, infected MT4-GFP cells in 100% normal human serum, read-out: WILD TYPE CELL ASSAY Viking IP (100% NHS)) [nM]
1 | COCCC1(C)C(=O)c2c(O)c(=O)c(C(=O)NCc3ccc(F)cc3F)cn2CC1OCCP(=O)(O)O (centres unmarked) [Compound 84] | 2930 | 492 | – | –
2 | COCCC1(C)C(=O)c2c(O)c(=O)c(C(=O)NCc3ccc(F)cc3F)cn2CC1OCCP(=O)(OCOC(=O)OC(C)C)OCOC(=O)OC(C)C (centres unmarked) [Compound 85] | 7.7 | 0.291 | – | –
3 | COCCC1(C)C(=O)c2c(O)c(=O)c(C(=O)NCc3ccc(F)cc3F)cn2CC1OCCP(=O)(OCOC(=O)OC(C)C)OCOC(=O)OC(C)C (centres unmarked) [Compound 86] | 980 | 3.5 | – | –
4 | COCCC1(C)C(=O)c2c(O)c(=O)c(C(=O)NCc3ccc(F)cc3F)cn2CC1OCCP(=O)(OCOC(=O)OC(C)C)OCOC(=O)OC(C)C (centres unmarked) [Compound 87] | 21 | 0.8 | – | –
5 | COCCC1(C)C(=O)c2c(O)c(=O)c(C(=O)NCc3ccc(F)cc3F)cn2CC1OCCP(=O)(OCOC(=O)OC(C)C)OCOC(=O)OC(C)C (centres unmarked) [Compound 88] | 29 | 0.9 | – | –
6 | CCOP(=O)(CCCOC1Cn2cc(C(=O)NCc3ccc(F)cc3F)c(=O)c(O)c2C(=O)C1(C)CCOC)OCC (centres unmarked) [Compound 89] | 211 | 15 | – | –
7 | CCOP(=O)(CCCOC1Cn2cc(C(=O)NCc3ccc(F)cc3F)c(=O)c(O)c2C(=O)C1(C)CCOC)OCC (centres unmarked) [Compound 90] | 123 | 15 | – | –
8 | CCOP(=O)(CCCOC1Cn2cc(C(=O)NCc3ccc(F)cc3F)c(=O)c(O)c2C(=O)C1(C)CCOC)OCC (centres unmarked) [Compound 91] | 600 | 31 | – | –
9 | CCOP(=O)(CCCOC1Cn2cc(C(=O)NCc3ccc(F)cc3F)c(=O)c(O)c2C(=O)C1(C)CCOC)OCC (centres unmarked) [Compound 92] | 2320 | 143 | – | –
10 | CCOP(=O)(CCNC1Cn2cc(C(=O)NCc3ccc(F)cc3F)c(=O)c(O)c2C(=O)C1(C)C)OCC (centres unmarked) [Compound 101] | 891 | – | 50 | –
11 | CCOP(=O)(CCNC1Cn2cc(C(=O)NCc3ccc(F)cc3F)c(=O)c(O)c2C(=O)C1(C)C)OCC (centres unmarked) [Compound 102] | 150 | 25 | – | –
12 | CCOP(=O)(CCCNC1Cn2cc(C(=O)NCc3ccc(F)cc3F)c(=O)c(O)c2C(=O)C1(C)C)OCC (centres unmarked) [Compound 105] | 628 | 15 | – | –
13 | CCOP(=O)(CCCNC1Cn2cc(C(=O)NCc3ccc(F)cc3F)c(=O)c(O)c2C(=O)C1(C)C)OCC (centres unmarked) [Compound 106] | 95 | 3.6 | – | –
14 | CC1(C)C(=O)c2c(O)c(=O)c(C(=O)NCc3ccc(F)cc3F)cn2CC1NCCCP(=O)(O)O (centres unmarked) [Compound 108] | – | – | 95 | 1260
15 | CC(C)OC(=O)OCOP(=O)(CCCNC1Cn2cc(C(=O)NCc3ccc(F)cc3F)c(=O)c(O)c2C(=O)C1(C)C)OCOC(=O)OC(C)C (centres unmarked) [Compound 109] | 3520 | 38 | – | –
16 | CC(C)OC(=O)OCOP(=O)(CCCNC1Cn2cc(C(=O)NCc3ccc(F)cc3F)c(=O)c(O)c2C(=O)C1(C)C)OCOC(=O)OC(C)C (centres unmarked) [Compound 110] | 154 | 8.8 | – | –
